Data from patent US20080031968A1, “Methods for increasing cellular energy expenditure” (priority 2005, published 2008).

How the values were obtained:
KK-Ay mice [1] = experiment: CA or GW4064 treatment of KK-Ay mice, serum lipids; format: in vivo, mouse; conditions: KK-Ay mice; for lowered circulating TG levels / total plasma cholesterol decreased: 1 week
Experimental: (§1) Male C57BL/6J, KK-Ay, and ob/ob (C57BL/6J background) mice, 6-10 weeks of age, were obtained from Elevage Janvier (Le Genest St. Isle, France), CLEA Japan Inc. (Tokyo, Japan), and The Jackson Laboratory (Bar Harbor, Me., USA), respectively. All mice were maintained in a temperature-controlled (23° C.) facility with a 12-hour light/dark cycle and were given free access to food and water. The study protocols were approved by the institutional review boards. The body weight and food intake were measured every second day. The control and high-fat diet was obtained from UAR (Villemoisson sur Orge, France). […] The mice were fasted 4 hours before harvesting blood for subsequent lipid measurements, and tissues for RNA isolation, lipid measurements, and histology.
(§2) For measurement of liver TGs and cholesterol content, a liver was homogenized in chloroform/methanol (2:1 v/v) using a Polytron tissue grinder (Kinematica AG, Luzern, Switzerland). Lipid extracts were prepared by the classical Folch method. Extracts were dried under N2 flow and resuspended in isopropanol.

KK-Ay mice [2] = experiment: Liver TG and cholesterol content and histology in KK-Ay mice; format: in vivo, mouse
Experimental: as §1, §2

KK-Ay mice [3] = experiment: In vivo VLDL TG production (Tyloxapol) in KK-Ay mice; design: species or system mouse; conditions: 1 week of CA feeding, chow and high-fat diet
KK-Ay and C57BL/6J mice = experiment: Tissue mRNA levels by quantitative RT-PCR after CA supplementation; format: in vivo, mouse
Experimental: as §1
Total RNA was extracted from frozen tissue samples or cells using the RNeasy kit (QIAGEN, Courtaboeuf, France). cDNA was synthesized from total RNA with the SuperScript First-Strand Synthesis System (Invitrogen) and random hexamer primers. The real-time PCR measurement of individual cDNAs was performed using SYBR green dye to measure duplex DNA formation with the LightCycler System (Roche Diagnostics, Meylan, France). The sequences of the primer sets used are available online at http://www-igbmc.ustrasbg.fr/Departments/Dep_V/Dep_VA/Publi/Paper.html.

C57BL/6J mice [4] = experiment: LXR agonist-induced lipogenesis in C57BL/6J mice with or without CA; format: in vivo, mouse
Experimental: as §1
Mice were gavaged with the LXR agonist T0901317 or vehicle, and the different diets were continued for one more day, after which the mice were sacrificed.

SHP+/+ and SHP-/- mice = experiment: FXR agonists in SHP+/+ and SHP-/- mice; format: in vivo, mouse; conditions: for hepatic expression of SREBP-1c, ME, CYP7A1 and ANGPTL3: 1-day treatment
Experimental: as §1

[5] = tested on: wild-type and LXRα/β-/- mice; experiment: CA diet in wild-type and LXRα/β-/- mice; format: in vivo, mouse; conditions: 0.5% CA for 3 days
Experimental: as §1
To determine whether LXR is essential for the TG-lowering effect of bile acids, we used LXRα/LXRβ double-knockout mice ([…]).

C57BL/6J mice [6] = experiment: Diet-induced obesity in C57BL/6J mice; format: in vivo, mouse
Experimental: (§3) Male C57BL/6J and KK-Ay mice, 6-7 weeks of age, were obtained from Charles River Laboratories France (l'Arbresle, France) and CLEA Japan Inc. (Tokyo, Japan), respectively. […] All mice were maintained in a temperature-controlled (23° C.) facility with a 12 h light/dark cycle and were given free access to food and water. The control and high-fat diet was obtained from UAR (Villemoison surOrge, France). […] GW4064 was suspended in peanut oil and mixed with the high fat diet at a concentration of 180 mg per kg of food. […] The mice were fasted 4 h before harvesting blood for subsequent blood measurements, and tissues for RNA isolation, lipid measurements and histology. Oxygen consumption was measured using the Oxymax apparatus (Columbus Instruments, Columbus, Ohio).
(§4) An OGTT was performed in animals that were fasted overnight. Glucose was administered by gavage at a dose of 2 g/kg. An IPITT was done in 4 h fasted animals. Insulin was injected at a dose of 0.75 U/kg. Glucose quantification was done with the Maxi Kit Glucometer 4 (Bayer Diagnostic, Puteaux, France) or Glucose RTU (bioMérieux Inc., Marcy l'Etoile, France). Plasma insulin concentrations were measured using ELISA (Cristal Chem Inc., Downers Grove, Ill.). Nonesterified fatty acids, triglycerides, ketone bodies, BA and total cholesterol were determined by enzymatic assays (Roche, Mannheim, Germany). cAMP was measured using the cAMP-Screen system (Applied Biosystems, Bedford, Mass.).
Pieces of mouse tissues were fixed in Bouin's solution, dehydrated in ethanol, embedded in paraffin, and cut at a thickness of 5 μm. Sections were deparaffinized, rehydrated, and stained with haematoxylin and eosin. Transmission electron microscopy was then performed.

BAT of C57BL/6J mice = experiment: BAT gene expression by microarray and Q-RT-PCR; format: in vivo, mouse
Experimental: For microarray analysis, RNA was isolated from BAT using the RNeasy mini kit (QIAGEN, Courtaboeuf, France). Equal amounts of RNA from mice in each group were pooled (n=3 or 4 mice) and used for cDNA synthesis. After second-strand cDNA synthesis (Life Technologies, Cergy Pontoise, France), in vitro transcription was performed with biotinylated UTP and CTP (Enzo Diagnostics, Farmingdale, N.Y.). Fragmented cRNA samples were hybridized to the Affymetrix MOE430A microarray. The raw data was analyzed using the Microarray Suite Software version 5.0 (MAS5.0, Affymetrix, Santa Clara, Calif.).

KK-Ay mice [7] = experiment: CA in KK-Ay mice, body weight, OGTT and IPITT; format: in vivo, mouse
Experimental: as §3, §4

humans = conditions: cited from earlier work
[8] = CA feeding, HPLC of lipoproteins
[9] = KK-Ay and C57BL/6J mice, 1 and 7 days CA in chow
[10] = CA coadministration with T0901317
[11] = high fat diet supplemented with CA, histology
[12] = KK-Ay mice, CA added to normal chow diet

C[C@H](CCC(=O)O)[C@H]1CC[C@H]2[C@@H]3[C@H](O)C[C@@H]4C[C@H](O)CC[C@]4(C)[C@H]3C[C@H](O)[C@]12C [CA, cholic acid]
HDL cholesterol (KK-Ay mice [1]; [8]): decreasing HDL cholesterol
VLDL TGs (KK-Ay mice [1]; [8]): decreasing VLDL TGs
plasma FFAs (KK-Ay mice [1]; CA feeding, particularly on high-fat diet): decreased plasma FFAs
lowered circulating TG levels (KK-Ay mice [1]; high-fat diet with 0.5% CA): 65%
total plasma cholesterol decreased (KK-Ay mice [1]; high-fat diet with 0.5% CA): 35%
lowered circulating TG levels (KK-Ay mice [1]; normal-chow diet with 0.5% CA): 51%
total plasma cholesterol decreased (KK-Ay mice [1]; normal-chow diet with 0.5% CA): 24%
liver TGs content (KK-Ay mice [2]; CA 3 weeks, chow or high-fat diet): significantly lower
hepatic cholesterol (KK-Ay mice [2]; CA 3 weeks, particularly high-fat diet): increased hepatic cholesterol
neutral lipids in liver sections (Oil Red O) (KK-Ay mice [2]; high-fat diet with CA, 3 weeks): accumulated less neutral lipids
liver VLDL production (KK-Ay mice [3]): significantly decreased
hepatic expression of MCAD and LCAD (KK-Ay and C57BL/6J mice; C57BL/6J mice, 1 and 7 days CA): significantly decreased
expression of lipogenic genes in white adipose tissue (KK-Ay and C57BL/6J mice; CA treatment): none of the lipogenic genes were lowered
hepatic expression of SHP (KK-Ay and C57BL/6J mice; CA treatment): robust induction
hepatic expression of AceCS, ME and SCD-1 (KK-Ay and C57BL/6J mice; [9]): significantly reduced
hepatic expression of LXRA, LRH-1, FXR and SREBP-2 (KK-Ay and C57BL/6J mice; [9]): No major changes
hepatic expression of CPT-I, MCAD and LCAD (KK-Ay and C57BL/6J mice; KK-Ay mice, CA): no change
SHP expression (C57BL/6J mice [4]; [10]): increased SHP expression
SREBP-1c and its target genes (C57BL/6J mice [4]; [10]): prevented the induction
LXR agonist induction of liver weight and serum TGs (C57BL/6J mice [4]; coadministration of 0.5% CA with T0901317): completely prevented
serum TGs (SHP+/+ and SHP-/- mice; SHP+/+ mice, 0, 3 and 7 days): significantly lowered
hepatic expression of SREBP-1c, ME, CYP7A1 and ANGPTL3 (SHP+/+ and SHP-/- mice; SHP+/+ mice): significantly reduced
decrease in serum TGs (SHP+/+ and SHP-/- mice; SHP-/- mice): completely abolished
hepatic expression of SREBP-1c, ME, CYP7A1 and ANGPTL3 (SHP+/+ and SHP-/- mice; SHP-/- mice): no decrease
decrease in serum TGs, SREBP-1c and ME ([5]; LXRα/β-/- mice): not observed
SHP expression ([5]; wild-type and LXRα/β-/- animals): induced significantly
serum TG ([5]; wild-type animals): decreased serum TG
glucose tolerance (C57BL/6J mice [6]; C57BL/6J mice with diet-induced obesity): improves glucose tolerance
body weight gain (C57BL/6J mice [6]; chow diet supplemented with CA): no effect
high fat-induced changes in adipose mass and morphology (C57BL/6J mice [6]; diet supplementation with CA): completely prevented
weight gain (C57BL/6J mice [6]; high fat diet supplemented with 0.5% CA): reduced the weight gain
adipocyte hypertrophy in WAT and BAT (C57BL/6J mice [6]; [11]): not observed
liver steatosis (C57BL/6J mice [6]; [11]): reversed
120-days of diet-induced weight gain (C57BL/6J mice [6]; obese mice switched to high fat diet containing CA): reversed
time to return to normal body weight (C57BL/6J mice [6]; obese mice switched to high fat diet containing CA (F-FA)): ≤ 30 days
expression of PGC-1α, PGC-1β, UCP-1, UCP-3, ACO, mCPT-I and D2 in BAT (BAT of C57BL/6J mice; C57BL/6J mice fed 47 days, diet mixed with CA, Q-RT-PCR): significantly increased
genes involved in control of energy expenditure incl. D2 in BAT (microarray) (BAT of C57BL/6J mice; high fat diet mixed with CA or CDCA for 9 days): upregulated
body weight (KK-Ay mice [7]; [12]): decreased body weight
metabolic control (oral glucose tolerance test, intraperitoneal insulin tolerance test) (KK-Ay mice [7]; [12]): improved metabolic control
insulin sensitivity (KK-Ay mice [7]; KK-Ay mouse): improve insulin sensitivity
hepatotoxicity (humans): significant hepatotoxicity
